For one assay, the target named is 5-HT3 receptors (Mus musculus (Mouse), UniProt P23979). The assay can be described thus: von Bezold-Jarisch model in vivo: inhibition of 5-HT induced bradycardia. Particulars: 60 min before 5-HT 0.1 mg/kg IV, highest oral dose tested. As for the experimental part:
This is a well characterized and widely used model to assess 5-HT3 receptor function in vivo (King et al., 5-Hydroxtryptamine-3 Receptor Antagonists, CRC Press, pp. 74-75 (1993), which is hereby incorporated by reference in its entirety). Certain compounds (Table 1) were evaluated for their ability to inhibit serotonin induced bradycardia in vivo in the mouse (Saxena et al., Arch. Int. Pharmacodyn., 277:235-252 (1985), which is hereby incorporated by reference in its entirety). Test substances and vehicle [2% Tween 80] were each administered orally to a group of 5 male CD-1(Crl.) mice each weighing 24±2 g. A dosing volume of 10 mL/kg was used. Sixty minutes later, 5-HT (0.1 mg/kg IV)-induced bradycardia was recorded in urethane (2250 mg/kg IP, given 10 minutes before 5-HT)-anesthetized animals.

A further assay concerns the target human 5-HT3 receptor (Homo sapiens (Human), UniProt P46098). The experiment in a line: radioligand binding assay (SPA format), [9-methyl-3H]BRL-43694 displacement. As to the method:
The relative affinity of the various compounds for the human 5-HT3 receptor was measured in a radioligand binding assay, using a scintillation proximity assay (SPA) format. Test compounds were dissolved to 10 mM in 100% DMSO, then serially diluted at 10× assay concentrations in 100% DMSO in 96-well polypropylene plates and further diluted to 4× assay concentrations with the assay buffer. […] Binding reactions were set up in wells of PicoPlates-96 (Perkin Elmer, Waltham, Mass.) by adding consecutively 50 μL, of each competing compound or buffer, SPA beads, the radioligand and 5-HT3 receptor membranes. After an overnight incubation at room temperature on a Nutator mixer, plates were centrifuged for 15 min at 1,500 rpm, followed by incubation in the dark for 30 min. Radioactivity was counted in the TopCount microplate counter (Perkin Elmer) for 5 min. […] Specific binding was determined by subtracting nonspecific binding from total binding. All experiments were performed in duplicate using ten concentrations of competing ligand, with ondansetron included as a control in every run. IC50 values were determined from specific binding data using XLfit4.1 curve fitting software from IDBS Ltd. The inhibition constant (Ki) was calculated from the Cheng Prusoff equation: (Ki=IC50/(1+(L/KD)), where L=concentration of radioligand in the assay, and KD=affinity of the radioligand for the receptor.

Assay [1] has as its target recombinant human 5-HT3A receptors (Homo sapiens (Human), UniProt P46098). The assay can be described thus: agonist activity (Ca2+ fluorescence, Fluo-4) in HEK293 cells expressing the h5-HT3A receptor subunit. It is filed as cell-based. Conditions: for activation at 10 µM: HEK293, read-out: HEK293 h5-HT3A % agonist response. As for the experimental part:
Human embryonic kidney (HEK293) cells expressing the h5-HT3A receptor subunit were seeded directly into poly-D-lysine coated, black-walled, clear bottomed, 96 well plates with approximately 1×10^5 cells per well. After 48 hrs incubation in DMEM growth media (100 μL), cells were washed twice (each 200 μL) in Hank's balanced salt solution (Invitrogen) before incubation (1 hr) with Fluo-4 acetoxymethyl (AM) ester (100 μL, 2.5 μM; Molecular Probes). Cells were washed twice (each 200 μL) in Hank's balanced salt solution and incubated for a further 30 mins in Hank's balanced salt solution (100 μL) prior to assay (25° C.). Alteration in [Ca^2+], was measured (relative fluorescence units [RFU]) using a Flexstation (excitation 488 nm and emission 515 nm; frequency of recording 3 sec). After recording for at least 80 sec, vehicle (Hank's balanced salt solution) or drug was automatically administered to the well (50 μL). Baseline was calculated from the 5 data points immediately prior to the first drug administration and the maximum response was that achieved over the 240 sec following drug administration. In all experiments the muscarinic receptor agonist carbachol (1 mM) was added 240 sec after the test drug administration.

Setting [2] is: human 5-HT3 receptor membranes, 10 nM [3H]BRL-43694, Ki from Cheng Prusoff equation, read-out: h5-HT3A Ki.

Where two headings read alike, the source gives them in different places.

Sequence of recombinant human 5-HT3A receptors (P46098 24-478): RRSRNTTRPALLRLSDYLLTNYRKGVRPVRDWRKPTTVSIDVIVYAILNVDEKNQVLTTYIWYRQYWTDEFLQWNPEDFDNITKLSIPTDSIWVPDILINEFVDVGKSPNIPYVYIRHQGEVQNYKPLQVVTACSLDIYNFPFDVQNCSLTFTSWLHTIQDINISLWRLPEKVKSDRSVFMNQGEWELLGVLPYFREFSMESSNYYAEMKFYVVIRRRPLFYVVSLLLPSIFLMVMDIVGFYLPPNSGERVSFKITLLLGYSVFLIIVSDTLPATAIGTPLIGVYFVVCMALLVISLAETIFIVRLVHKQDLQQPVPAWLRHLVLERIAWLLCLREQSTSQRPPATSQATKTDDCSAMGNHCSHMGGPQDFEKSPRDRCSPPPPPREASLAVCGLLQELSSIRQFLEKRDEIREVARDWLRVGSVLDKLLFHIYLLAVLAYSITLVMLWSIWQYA
Sequence of human 5-HT3 receptor (P46098 24-478): as above
Sequence of 5-HT3 receptors (P23979 24-489): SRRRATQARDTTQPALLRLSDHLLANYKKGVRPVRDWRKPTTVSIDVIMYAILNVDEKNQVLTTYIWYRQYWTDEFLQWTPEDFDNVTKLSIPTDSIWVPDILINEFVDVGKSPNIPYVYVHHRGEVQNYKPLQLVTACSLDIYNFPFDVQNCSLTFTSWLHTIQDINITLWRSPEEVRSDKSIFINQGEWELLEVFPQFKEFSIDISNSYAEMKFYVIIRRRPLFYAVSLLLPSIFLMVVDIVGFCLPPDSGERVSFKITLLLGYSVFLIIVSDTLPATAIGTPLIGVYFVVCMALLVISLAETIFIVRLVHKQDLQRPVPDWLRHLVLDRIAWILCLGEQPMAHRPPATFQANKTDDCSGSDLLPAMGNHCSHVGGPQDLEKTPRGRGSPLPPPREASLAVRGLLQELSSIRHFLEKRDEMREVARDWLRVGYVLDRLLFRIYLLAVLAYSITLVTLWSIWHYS

With `Cc1[nH]cnc1CN1CCc2c(c3ccccc3n2C)C1=O` [Alosetron, reference compound], on 5-HT3 receptors (1 mg/kg oral), the “Inhibition of 5-HT Induced Bradycardia in Mice” value (shortened to “Inhibition … in Mice”) was determined as 95% @ 1 mg/kg.

As a reminder, the Ki is a dissociation constant, usually derived from enzyme kinetics or from competition with a known ligand. For `Cn1cc2c3c(cccc31)C(=O)N([C@@H]1CN3CCC1CC3)C2` [Example 4, (S)-5-Methyl-2-(quinuclidin-8-yl)-2,3-dihydropyrrolo[4,3,2-de]isoquinolin-1(5H)-one], the Ki on human 5-HT3 receptor (setting [2]) worked out at 1 nM.

Turning to `CN1CC2CCCC1CC(N1Cc3cn(C)c4cccc(c34)C1=O)C2` (stereo not drawn) [Example 5, Endo-5-methyl-2-(9-methyl-9-azabicyclo[3.3.1]nonan-3-yl)-2,3-dihydropyrrolo[4,3,2-de]isoquinolin-1(5H)-one], on human 5-HT3 receptor (setting [2]), the Ki was determined as 13 nM.

Turning to `Cn1nc2c3c(cccc31)C(=O)N([C@@H]1CN3CCC1CC3)C2` [Example 6, (S)-2-Methyl-7-(quinuclidin-3-yl)-7,8-dihydropyrazolo[3,4,5-de]isoquinolin-6(2H)-one], the Ki at human 5-HT3 receptor amounted to 1 nM.

On to `CCn1nc2c3c(cccc31)C(=O)N([C@@H]1CN3CCC1CC3)C2` [Example 8, (S)-2-ethyl-7-(quinuclidin-3-yl)-7,8-dihydropyrazolo[3,4,5-de]isoquinolin-6(2H)-one], for which the affinity on human 5-HT3 receptor, expressed as Ki, was 1 nM.

On human 5-HT3 receptor, `CC(C)Cn1nc2c3c(cccc31)C(=O)N([C@@H]1CN3CCC1CC3)C2` [Example 9] gave an inhibition constant Ki of 2 nM.

Take `Cn1nc2c3c(cccc31)C(=O)N([C@H]1CN3CCC1CC3)C2` [Example 12, (R)-2-Methyl-7-(quinuclidin-3-yl)-7,8-dihydropyrazolo[3,4,5-de]isoquinolin-6(2H)-one]: the affinity on human 5-HT3 receptor corresponds to a Ki of 2 nM. Further, in assay [1], the activation at 10 µM worked out at 6%.

For the molecule `Cn1nc2c3c(cc(F)cc31)C(=O)N([C@H]1CN3CCC1CC3)C2` [Example 13], in assay [1], the activation at 10 µM was found to be 6%.

For the molecule `CCn1nc2c3c(cccc31)C(=O)N([C@H]1CN3CCC1CC3)C2` [Example 14, (R)-2-Ethyl-7-(quinuclidin-3-yl)-7,8-dihydropyrazolo[3,4,5-de]isoquinolin-6(2H)-one], in assay [1], the activation at 10 µM turned out to be 4%.

Take `CC(C)n1nc2c3c(cccc31)C(=O)N([C@H]1CN3CCC1CC3)C2` [Example 15, (R)-2-Isopropyl-7-(quinuclidin-3-yl)-7,8-dihydropyrazolo[3,4,5-de]isoquinolin-6(2H)-one]: the activation at 10 µM in assay [1] worked out at 3%.

Take `O=C1c2cccc3[nH]nc(c23)CN1[C@H]1CN2CCC1CC2` [Example 16, (R)-7-(Quinuclidin-3-yl)-7,8-dihydropyrazolo[3,4,5-de]isoquinolin-6(2H)-one]: in assay [1], the activation at 10 µM was 35%.

With `O=C1c2cccc3c2c(nn3Cc2ccccc2)CN1[C@H]1CN2CCC1CC2` [Example 17], the affinity at human 5-HT3 receptor corresponds to a Ki of 5 nM.

The molecule `O=C1c2cccc3c2c(nn3-c2ccc(Cl)cc2)CN1[C@H]1CN2CCC1CC2` [Example 19] came in with a Ki at human 5-HT3 receptor of 68 nM.

Consider `COc1ccc(-n2nc3c4c(cccc42)C(=O)N([C@H]2CN4CCC2CC4)C3)cc1` [Example 20], for which, on human 5-HT3 receptor, the affinity corresponds to a Ki of 57 nM.

`O=C1c2cc(Br)cc3[nH]nc(c23)CN1[C@H]1CN2CCC1CC2` [Example 21] registered a Ki at human 5-HT3 receptor of 1 nM.

With `CN1C2CCCC1CC(N1Cc3nn(C)c4cccc(c34)C1=O)C2` (stereo not drawn) [Example 22, 7-(Endo-N-(9-methyl-9-azabicyclo[3.3.1]nonan-3-yl))-2-methyl-7,8-dihydropyrazolo[3,4,5-de]isoquinolin-6(2H)-one], the Ki on human 5-HT3 receptor was 34 nM.

On to `O=C1c2cccc3[nH]cc(c23)CCN1[C@@H]1CN2CCC1CC2` [Example 29, (S)-2-(Quinuclidin-3-yl)-2,3,4,6-tetrahydro-1H-azepino[5,4,3-cd]indol-1-one], for which the Ki at human 5-HT3 receptor (setting [2]) stood at 3 nM. For the same molecule, the “HEK293 h5-HT3A % agonist response” value in assay [1] (at 10 μM, normalized to the response of 5-HT (100% at 3 μM), NR = no response) stood at 17%. Further, the “Inhibition … in Mice” value on 5-HT3 receptors (1 mg/kg oral) was found to be 94% @ 1 mg/kg.

`Cn1cc2c3c(cccc31)C(=O)N([C@@H]1CN3CCC1CC3)CC2` [Example 31, (S)-6-methyl-2-(quinuclidin-3-yl)-2,3,4,6-tetrahydro-1H-azepino[5,4,3-cd]indol-1-one]: the Ki on human 5-HT3 receptor (setting [2]) was determined as 1 nM. The activation at 10 µM in assay [1] stood at 5%.

On to `O=C1c2cccc3c2c(cn3Cc2ccccc2)CCN1[C@@H]1CN2CCC1CC2` [Example 32, (S)-6-benzyl-2-(quinuclidin-3-yl)-2,3,4,6-tetrahydro-1H-azepino[5,4,3-cd]indol-1-one], for which, at human 5-HT3 receptor (setting [2]), the Ki came to 1 nM.

`O=C1c2cccc3[nH]cc(c23)CCN1[C@H]1CN2CCC1CC2` [Example 33, (R)-2-(Quinuclidin-3-yl)-2,3,4,6-tetrahydro-1H-azepino[5,4,3-cd]indol-1-one]: the Ki at human 5-HT3 receptor (setting [2]) was determined as 49 nM. In assay [1], the activation at 10 µM came to 14%.

With `Cn1cc2c3c(cccc31)C(=O)N([C@H]1CN3CCC1CC3)CC2` [Example 34, (R)-6-methyl-2-(quinuclidin-3-yl)-2,3,4,6-tetrahydro-1H-azepino[5,4,3-cd]indol-1-one], the Ki on human 5-HT3 receptor (setting [2]) was 8 nM. Moreover, the activation at 10 µM in assay [1] came out at 13%. Moreover, the “Inhibition … in Mice” value at 5-HT3 receptors (3 mg/kg oral) worked out at 88% @ 3 mg/kg.

`O=C1c2cccc3c2c(cn3Cc2ccccc2)CCN1[C@H]1CN2CCC1CC2` [Example 35, (R)-6-benzyl-2-(quinuclidin-3-yl)-2,3,4,6-tetrahydro-1H-azepino[5,4,3-cd]indol-1-one]: the Ki on human 5-HT3 receptor (setting [2]) was 13 nM.

For orientation: inhibition means the drop in the measured response relative to a control, in per cent. Regarding `O=C1c2cccc3c2c(cn3-c2ccc(F)cc2)CCN1[C@H]1CN2CCC1CC2` [Example 36, (R)-6-(4-fluorophenyl)-2-(quinuclidin-3-yl)-2,3,4,6-tetrahydro-1H-azepino[5,4,3-cd]indol-1-one], the inhibition at 10 µM on human 5-HT3 receptor (10 μM, read-out: h5-HT3A inhibition @ 10 μM) was determined as 49%.

For the molecule `CN1C2CCCC1CC(N1CCc3cn(C)c4cccc(c34)C1=O)C2` (stereo not drawn) [Example 37, Endo-6-methyl-2-(9-methyl-9-azabicyclo[3.3.1]nonan-3-yl)-2,3,4,6-tetrahydro-1H-azepino[5,4,3-cd]indol-1-one], the inhibition constant (Ki) at human 5-HT3 receptor (setting [2]) was 267 nM.

Consider `CN1C2CCC1CC(N1Cc3nn(C)c4cccc(c34)C1=O)C2` (stereo not drawn) [Example 38, Endo-2-methyl-7-(8-methyl-8-azabicyclo[3.2.1]octan-3-yl)-7,8-dihydropyrazolo[3,4,5-de]isoquinolin-6(2H)-one], for which affinity at human 5-HT3 receptor was put at a Ki of 59 nM.

`Cn1cc(C(=O)[C@@H]2CCc3nc[nH]c3C2)c2ccccc21` [Ramosetron, reference compound]: the Ki at human 5-HT3 receptor (setting [2]) stood at 0.06 nM. The “Inhibition … in Mice” value on 5-HT3 receptors (0.1 mg/kg oral) is recorded as 77% @ 0.1 mg/kg.

The record behind these values is patent publication US8501729B2 (Albany Molecular Research, Inc., priority 2008, dated 2013).
